In patent US20250353891A1 (MEDIMMUNE LIMITED, priority 2022, published 2025):
Starred links: 1 amine or outer side, 2 acyl side, 3 side chain; linkers in the order of their positions; H or OH if unused. Non-standard residues stand in square brackets, D forms with d. Residues, ends and D or L forms follow the SMILES beside them. Groups on a side chain read outwards from the residue. *: point of attachment. C20 diacid = O=C(O)CCCCCCCCCCCCCCCCCCC(=O)*; C18 diacid = O=C(O)CCCCCCCCCCCCCCCCC(=O)*; γGlu = O=C(O)[C@H](CCC(=O)[*:2])N[*:1]; αMeF = C[C@](N)(Cc1ccccc1)C(=O)O; AEEA = NCCOCCOCC(=O)O; Aib = CC(C)(N)C(=O)O

What was measured:
[1] = biological target: human GLP-1 receptor (hGLP-1R) (Homo sapiens, UniProt P43220); test: cAMP production (HTRF) in CHO cells expressing hGLP-1R; type: cell-based; parameters: expressed in transfected cells; details: for EC50: Table 7, peptides modified at position 20, cAMP in CHO hGLP-1R cells, geometric mean, read-out: hGLP-1R EC50; for % Relative Potency Ratio: Table 7, % GLP-1R activity relative to GLP-1 / % GlucR activity relative to glucagon
Outline: (§1)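 Potency values represent EC50 from 4-parameter logistic curves of HTRF % Delta F signal. Receptor-expressing CHO cells (hGCGR 2×10^5 cells/mL, hGLP-1R 1×10^5 cells/mL) were exposed for 30 min at room temperature before two-step cAMP detection.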

[2] = biological target: human glucagon receptor (hGCGR) (Homo sapiens, UniProt P47871); test: cAMP production (HTRF) in CHO cells expressing hGCGR; type: cell-based; parameters: expressed in transfected cells; details: Table 7, peptides modified at position 20; cAMP in CHO hGCGR cells; geometric mean; read-out: hGluc-R EC50
Outline: as §1

human glucagon receptor (hGCGR), sequence (P47871 26-477): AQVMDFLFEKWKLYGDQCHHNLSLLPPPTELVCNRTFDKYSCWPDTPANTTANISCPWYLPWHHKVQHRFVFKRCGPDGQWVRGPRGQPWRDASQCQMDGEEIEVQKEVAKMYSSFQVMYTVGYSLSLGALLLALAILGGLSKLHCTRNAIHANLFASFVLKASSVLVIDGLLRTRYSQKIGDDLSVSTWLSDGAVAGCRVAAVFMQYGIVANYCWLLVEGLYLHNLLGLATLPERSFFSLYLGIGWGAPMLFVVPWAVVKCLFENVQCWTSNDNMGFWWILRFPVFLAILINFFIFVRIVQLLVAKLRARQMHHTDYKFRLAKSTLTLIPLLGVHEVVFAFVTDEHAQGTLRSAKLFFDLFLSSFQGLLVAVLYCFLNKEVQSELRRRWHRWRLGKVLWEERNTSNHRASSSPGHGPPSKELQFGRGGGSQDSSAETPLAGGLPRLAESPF
human GLP-1 receptor (hGLP-1R), sequence (P43220 24-463): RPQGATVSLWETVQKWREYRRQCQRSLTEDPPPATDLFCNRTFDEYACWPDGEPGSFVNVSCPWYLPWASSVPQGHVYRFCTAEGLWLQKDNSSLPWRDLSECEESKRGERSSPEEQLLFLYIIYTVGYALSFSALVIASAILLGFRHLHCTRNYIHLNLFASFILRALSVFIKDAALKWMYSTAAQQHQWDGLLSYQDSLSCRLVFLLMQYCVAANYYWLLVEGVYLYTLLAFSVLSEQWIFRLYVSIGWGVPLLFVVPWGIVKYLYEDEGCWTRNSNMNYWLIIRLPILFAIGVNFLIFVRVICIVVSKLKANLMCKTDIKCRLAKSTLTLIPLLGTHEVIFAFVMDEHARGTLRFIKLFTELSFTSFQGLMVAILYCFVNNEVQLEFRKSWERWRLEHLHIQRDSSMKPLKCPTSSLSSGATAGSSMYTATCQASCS

| Compound | EC50 [1] [nM] | % Relative Potency Ratio [1] | EC50 [2] [nM] |
| --- | --- | --- | --- |
| CC[C@H](C)[C@H](NC(=O)C(C)(C)NC(=O)[C@H](CCC(N)=O)NC(=O)[C@@H](NC(=O)[C@](C)(Cc1ccccc1)NC(=O)[C@H](CC(=O)O)NC(=O)[C@H](CCCCNC(=O)CC[C@H](NC(=O)CC[C@H](NC(=O)CCCCCCCCCCCCCCCCCCC(=O)O)C(=O)O)C(=O)O)NC(=O)[C@H](C)NC(=O)[C@H](C)NC(=O)[C@H](CCCNC(=N)N)NC(=O)[C@H](CO)NC(=O)[C@H](CC(=O)O)NC(=O)[C@H](CC(C)C)NC(=O)[C@](C)(Cc1ccccc1)NC(=O)[C@H](CCCCN)NC(=O)[C@H](CO)NC(=O)[C@@H](NC(=O)[C@H](CC(=O)O)NC(=O)[C@H](CO)NC(=O)[C@@H](NC(=O)[C@](C)(Cc1ccccc1)NC(=O)[C@H](CO)NC(=O)CNC(=O)[C@H](Cc1c[nH]cn1)NC(=O)C(C)(C)NC(=O)[C@@H](N)Cc1c[nH]cn1)[C@@H](C)O)C(C)C)C(C)C)C(=O)N[C@@H](C)C(=O)N[C@@H](CC(N)=O)C(=O)N[C@H](C(N)=O)[C@@H](C)O [Peptide 275] (H-H[Aib]HGS[αMeF]TSDVSK[αMeF]LDSRAAK([γGlu-γGlu-C20 diacid])D[αMeF]VQ[Aib]IANT-NH2) | 0.111 | 3.1 | 0.175 |
| CC[C@H](C)[C@H](NC(=O)C(C)(C)NC(=O)[C@H](CCC(N)=O)NC(=O)[C@@H](NC(=O)[C@](C)(Cc1ccccc1)NC(=O)[C@H](CC(=O)O)NC(=O)[C@H](CCCCNC(=O)CC[C@H](NC(=O)CCCCCCCCCCCCCCCCCCC(=O)O)C(=O)O)NC(=O)[C@H](C)NC(=O)[C@H](C)NC(=O)[C@H](CCCNC(=N)N)NC(=O)[C@H](CO)NC(=O)[C@H](CC(=O)O)NC(=O)[C@H](CC(C)C)NC(=O)[C@](C)(Cc1ccccc1)NC(=O)[C@H](CCCCN)NC(=O)[C@H](CO)NC(=O)[C@@H](NC(=O)[C@H](CC(=O)O)NC(=O)[C@H](CO)NC(=O)[C@@H](NC(=O)[C@](C)(Cc1ccccc1)NC(=O)[C@H](CO)NC(=O)CNC(=O)[C@H](Cc1c[nH]cn1)NC(=O)C(C)(C)NC(=O)[C@@H](N)Cc1c[nH]cn1)[C@@H](C)O)C(C)C)C(C)C)C(=O)N[C@@H](C)C(=O)N[C@@H](CC(N)=O)C(=O)N[C@H](C(N)=O)[C@@H](C)O [Peptide 276] (H-H[Aib]HGS[αMeF]TSDVSK[αMeF]LDSRAAK([γGlu-C20 diacid])D[αMeF]VQ[Aib]IANT-NH2) | 0.143 | 1.3 | 0.0914 |
| CC[C@H](C)[C@H](NC(=O)C(C)(C)NC(=O)[C@H](CCC(N)=O)NC(=O)[C@@H](NC(=O)[C@](C)(Cc1ccccc1)NC(=O)[C@H](CC(=O)O)NC(=O)[C@H](CCCCNC(=O)COCCOCCNC(=O)CC[C@H](NC(=O)CC[C@H](NC(=O)CCCCCCCCCCCCCCCCCCC(=O)O)C(=O)O)C(=O)O)NC(=O)[C@H](C)NC(=O)[C@H](C)NC(=O)[C@H](CCCNC(=N)N)NC(=O)[C@H](CO)NC(=O)[C@H](CC(=O)O)NC(=O)[C@H](CC(C)C)NC(=O)[C@](C)(Cc1ccccc1)NC(=O)[C@H](CCCCN)NC(=O)[C@H](CO)NC(=O)[C@@H](NC(=O)[C@H](CC(=O)O)NC(=O)[C@H](CO)NC(=O)[C@@H](NC(=O)[C@](C)(Cc1ccccc1)NC(=O)[C@H](CO)NC(=O)CNC(=O)[C@H](Cc1c[nH]cn1)NC(=O)C(C)(C)NC(=O)[C@@H](N)Cc1c[nH]cn1)[C@@H](C)O)C(C)C)C(C)C)C(=O)N[C@@H](C)C(=O)N[C@@H](CC(N)=O)C(=O)N[C@H](C(N)=O)[C@@H](C)O [Peptide 279] (H-H[Aib]HGS[αMeF]TSDVSK[αMeF]LDSRAAK([AEEA-γGlu-γGlu-C20 diacid])D[αMeF]VQ[Aib]IANT-NH2) | 0.0865 | 3.4 | 0.15 |
| CC[C@H](C)[C@H](NC(=O)C(C)(C)NC(=O)[C@H](CCC(N)=O)NC(=O)[C@@H](NC(=O)[C@](C)(Cc1ccccc1)NC(=O)[C@H](CC(=O)O)NC(=O)[C@H](CCCCNC(=O)COCCOCCNC(=O)COCCOCCNC(=O)CC[C@H](NC(=O)CC[C@H](NC(=O)CCCCCCCCCCCCCCCCCCC(=O)O)C(=O)O)C(=O)O)NC(=O)[C@H](C)NC(=O)[C@H](C)NC(=O)[C@H](CCCNC(=N)N)NC(=O)[C@H](CO)NC(=O)[C@H](CC(=O)O)NC(=O)[C@H](CC(C)C)NC(=O)[C@](C)(Cc1ccccc1)NC(=O)[C@H](CCCCN)NC(=O)[C@H](CO)NC(=O)[C@@H](NC(=O)[C@H](CC(=O)O)NC(=O)[C@H](CO)NC(=O)[C@@H](NC(=O)[C@](C)(Cc1ccccc1)NC(=O)[C@H](CO)NC(=O)CNC(=O)[C@H](Cc1c[nH]cn1)NC(=O)[C@H](CO)NC(=O)[C@@H](N)Cc1c[nH]cn1)[C@@H](C)O)C(C)C)C(C)C)C(=O)N[C@@H](C)C(=O)N[C@@H](CC(N)=O)C(=O)N[C@H](C(N)=O)[C@@H](C)O [Peptide 281] (H-HSHGS[αMeF]TSDVSK[αMeF]LDSRAAK([AEEA-AEEA-γGlu-γGlu-C20 diacid])D[αMeF]VQ[Aib]IANT-NH2) | 0.155 | 13.3 | 1.04 |

The next compounds have a lower EC50 [1] than those just listed; values first:

| EC50 [1] [nM] | % Relative Potency Ratio [1] | EC50 [2] [nM] | Compound |
| --- | --- | --- | --- |
| 0.0789 | 2.1 | 0.0835 | CC[C@H](C)[C@H](NC(=O)C(C)(C)NC(=O)[C@H](CCC(N)=O)NC(=O)[C@@H](NC(=O)[C@](C)(Cc1ccccc1)NC(=O)[C@H](CC(=O)O)NC(=O)[C@H](CCCCNC(=O)COCCOCCNC(=O)CCCCCCCCCCCCCCCCCCC(=O)O)NC(=O)[C@H](C)NC(=O)[C@H](C)NC(=O)[C@H](CCCNC(=N)N)NC(=O)[C@H](CO)NC(=O)[C@H](CC(=O)O)NC(=O)[C@H](CC(C)C)NC(=O)[C@](C)(Cc1ccccc1)NC(=O)[C@H](CCCCN)NC(=O)[C@H](CO)NC(=O)[C@@H](NC(=O)[C@H](CC(=O)O)NC(=O)[C@H](CO)NC(=O)[C@@H](NC(=O)[C@](C)(Cc1ccccc1)NC(=O)[C@H](CO)NC(=O)CNC(=O)[C@H](Cc1c[nH]cn1)NC(=O)C(C)(C)NC(=O)[C@@H](N)Cc1c[nH]cn1)[C@@H](C)O)C(C)C)C(C)C)C(=O)N[C@@H](C)C(=O)N[C@@H](CC(N)=O)C(=O)N[C@H](C(N)=O)[C@@H](C)O [Peptide 278] (H-H[Aib]HGS[αMeF]TSDVSK[αMeF]LDSRAAK([AEEA-C20 diacid])D[αMeF]VQ[Aib]IANT-NH2) |
| 0.0783 | 3.9 | 0.155 | CC[C@H](C)[C@H](NC(=O)C(C)(C)NC(=O)[C@H](CCC(N)=O)NC(=O)[C@@H](NC(=O)[C@](C)(Cc1ccccc1)NC(=O)[C@H](CC(=O)O)NC(=O)[C@H](CCCCNC(=O)COCCOCCNC(=O)COCCOCCNC(=O)CC[C@H](NC(=O)CCCCCCCCCCCCCCCCCCC(=O)O)C(=O)O)NC(=O)[C@H](C)NC(=O)[C@H](C)NC(=O)[C@H](CCCNC(=N)N)NC(=O)[C@H](CO)NC(=O)[C@H](CC(=O)O)NC(=O)[C@H](CC(C)C)NC(=O)[C@](C)(Cc1ccccc1)NC(=O)[C@H](CCCCN)NC(=O)[C@H](CO)NC(=O)[C@@H](NC(=O)[C@H](CC(=O)O)NC(=O)[C@H](CO)NC(=O)[C@@H](NC(=O)[C@](C)(Cc1ccccc1)NC(=O)[C@H](CO)NC(=O)CNC(=O)[C@H](Cc1c[nH]cn1)NC(=O)C(C)(C)NC(=O)[C@@H](N)Cc1c[nH]cn1)[C@@H](C)O)C(C)C)C(C)C)C(=O)N[C@@H](C)C(=O)N[C@@H](CC(N)=O)C(=O)N[C@H](C(N)=O)[C@@H](C)O [Peptide 280] (H-H[Aib]HGS[αMeF]TSDVSK[αMeF]LDSRAAK([AEEA-AEEA-γGlu-C20 diacid])D[αMeF]VQ[Aib]IANT-NH2) |
| 0.0495 | 2.3 | 0.0573 | CC[C@H](C)[C@H](NC(=O)C(C)(C)NC(=O)[C@H](CCC(N)=O)NC(=O)[C@@H](NC(=O)[C@](C)(Cc1ccccc1)NC(=O)[C@H](CC(=O)O)NC(=O)[C@H](CCCCNC(=O)COCCOCCNC(=O)COCCOCCNC(=O)CCCCCCCCCCCCCCCCCCC(=O)O)NC(=O)[C@H](C)NC(=O)[C@H](C)NC(=O)[C@H](CCCNC(=N)N)NC(=O)[C@H](CO)NC(=O)[C@H](CC(=O)O)NC(=O)[C@H](CC(C)C)NC(=O)[C@](C)(Cc1ccccc1)NC(=O)[C@H](CCCCN)NC(=O)[C@H](CO)NC(=O)[C@@H](NC(=O)[C@H](CC(=O)O)NC(=O)[C@H](CO)NC(=O)[C@@H](NC(=O)[C@](C)(Cc1ccccc1)NC(=O)[C@H](CO)NC(=O)CNC(=O)[C@H](Cc1c[nH]cn1)NC(=O)C(C)(C)NC(=O)[C@@H](N)Cc1c[nH]cn1)[C@@H](C)O)C(C)C)C(C)C)C(=O)N[C@@H](C)C(=O)N[C@@H](CC(N)=O)C(=O)N[C@H](C(N)=O)[C@@H](C)O [Peptide 277] (H-H[Aib]HGS[αMeF]TSDVSK[αMeF]LDSRAAK([AEEA-AEEA-C20 diacid])D[αMeF]VQ[Aib]IANT-NH2) |
| 0.0434 | 5.4 | 0.119 | CC[C@H](C)[C@H](NC(=O)C(C)(C)NC(=O)[C@H](CCC(N)=O)NC(=O)[C@@H](NC(=O)[C@](C)(Cc1ccccc1)NC(=O)[C@H](CC(=O)O)NC(=O)[C@H](CCCCNC(=O)COCCOCCNC(=O)COCCOCCNC(=O)CC[C@H](NC(=O)CCCCCCCCCCCCCCCCC(=O)O)C(=O)O)NC(=O)[C@H](C)NC(=O)[C@H](C)NC(=O)[C@H](CCCNC(=N)N)NC(=O)[C@H](CO)NC(=O)[C@H](CC(=O)O)NC(=O)[C@H](CC(C)C)NC(=O)[C@](C)(Cc1ccccc1)NC(=O)[C@H](CCCCN)NC(=O)[C@H](CO)NC(=O)[C@@H](NC(=O)[C@H](CC(=O)O)NC(=O)[C@H](CO)NC(=O)[C@@H](NC(=O)[C@](C)(Cc1ccccc1)NC(=O)[C@H](CO)NC(=O)CNC(=O)[C@H](Cc1c[nH]cn1)NC(=O)[C@H](CO)NC(=O)[C@@H](N)Cc1c[nH]cn1)[C@@H](C)O)C(C)C)C(C)C)C(=O)N[C@@H](C)C(=O)N[C@@H](CC(N)=O)C(=O)N[C@H](C(N)=O)[C@@H](C)O [Peptide 284] (H-HSHGS[αMeF]TSDVSK[αMeF]LDSRAAK([AEEA-AEEA-γGlu-C18 diacid])D[αMeF]VQ[Aib]IANT-NH2) |
